Values after ≈ are worked out from the molar mass of the structure shown.
Experiments:
[1] = tested on: Amadori compound formation; assay: Hemoglobin-δ-gluconolactone assay of Amadori compound formation; format: biochemical; set-up: inhibition rate of Amadori compound formation: dose or concentration left out as unconfirmed; settings: for IC50: early stage of AGE formation; for inhibitory activity on Amadori compound formation, fold higher than positive control AG: relative to Aminoguanidine hydrochloride (IC50 = 109.74 μM)
[2] = Water solubility analysis; format: physicochemical; settings: for water solubility, fold higher than CS: relative to CS; for solubility at 1 h: thermodynamic from solid, distilled water, 37 °C, sonication 1 h
Method: CS and derivatives were dissolved in distilled water and incubated at 37 °C with sonication for 1 h to maximize solubility. After sonication, undissolved samples were eliminated by centrifugation (7000× g, 37 °C, 5 min). The supernatants were diluted in methanol and filtered through a 0.45 μm disposable syringe filter (Advantec, Dublin, CA, USA) to analyze the concentration of the samples using HPLC analysis.

AGEs cross-linking = assay: N-acetyl-glycyl-lysine-methyl ester D-ribose assay on AGE cross-linking; format: biochemical; settings: GK peptide-D-ribose, 37 °C, 72 h
Method: (§1) This test was used to evaluate the ability of samples to inhibit cross-linking of the GK peptide in the presence of D-ribose using the method described by Hwang et al. The GK peptide (26.7 mg/mL) was incubated with D-ribose (200 mg/mL) in sodium phosphate buffer (0.5 M, pH 7.4) containing 0.2 g/L NaN3 under sterile conditions at 37 °C for 72 h. […] All reagents and samples were sterilized by filtration through […] membrane filters. The fluorescence intensity was measured at an excitation wavelength of 355 nm and an emission wavelength of 460 nm with a Luminescence spectrometer LS50B (Perkin-Elmer Ltd., Buckinghamshire, England). AG was used as a positive control.

[3] = tested on: NO production in LPS-induced RAW 264.7 cells; assay: NO generation in LPS-induced RAW 264.7 cells (Griess); format: cell-based; settings: 24 h
Method: The cytotoxicity of CS and derivatives on RAW 264.7 cells was examined using the MTS assay kit. Cells (1.6 × 10^4/well) were cultured in 96-well plates and treated with samples (10, 25, and 100 μM) for 12, 24, 48, and 72 h. After incubation, 20 μL/well of MTS solution was incubated for 90 min at 37 °C in a humidified 5% CO2 atmosphere. The optical density at 490 nm was measured three times using an EL-800 Universal microplate reader (Bio-Tek Instrument Inc., Winooski, VT, USA). Cell viability of the untreated group was set to 100%. RAW 264.7 cells were seeded into 12-well plates at 4 × 10^5-cells/well, and then incubated with LPS (1 μg/mL) and various concentrations of samples for 24 h. The concentration of nitric oxide (NO) in the medium was measured using the Griess reagent system, as described by the manufacturer. The production of NO was measured at 570 nm using an EL-800 Universal microplate reader (Bio-Tek Instrument Inc., Winooski, VT, USA), and was compared with a sodium nitrite standard calibration curve.

AGE formation = assay: Bovine serum albumin-methylglyoxal assay on AGE formation; format: biochemical; settings: BSA-methylglyoxal, 37 °C, 48 h
Method: Bovine serum albumin (50 mg/mL) was incubated at 37 °C for 48 h with methylglyoxal (100 mM) in sodium phosphate buffer (0.1 M, pH 7.4) containing 0.2 g/L NaN3 in the presence of various concentrations of the compounds (including a control).
as §1

SMILES | inhibition rate of Amadori compound formation ([1]; dose-dependent) | IC50 [1] | inhibitory activity on Amadori compound formation, fold higher than positive control AG [1] | inhibitory activity on Amadori compound formation, fold higher than CS ([1]; relative to CS) | water solubility, fold higher than CS [2] | solubility at 1 h [2] | IC50 (AGEs cross-linking) | inhibition of NO [3] | IC50 (AGE formation) | inhibitory activity on Amadori compound formation ([1]; up to a concentration of 10.0 mg/mL)
CC(=O)Oc1cc(OC(C)=O)c2c(=O)cc(-c3ccccc3)oc2c1 [5,7-Di-O-acetylchrysin, 5,7-di-O-acetylchrysin] | 1.76–55.13% | 0.26 µM | 422.07 fold | 66.96 fold | 8.83 fold | 265 µM (≈ 89.7 µg/mL) | 22.3 µM | concentration-dependent inhibition | 0.91 µM | 
COc1cc(OC)c2c(=O)cc(-c3ccccc3)oc2c1 [5,7-Di-O-methoxychrysin, 5,7-di-O-methoxychrysin] |  | 7.88 µM | 13.92 fold |  |  | 11 µM (≈ 3.11 µg/mL) | 39.9 µM |  | 41.8 µM | 
CC(=O)Oc1cc(O)c2c(=O)cc(-c3ccccc3)oc2c1 [7-O-Acetylchrysin, 7-O-acetylchrysin] |  | 23.5 µM | 4.66 fold |  | 2.87 fold | 86 µM (≈ 25.5 µg/mL) | > 2000 µM |  | 21.6 µM | 
COc1cc(O)c2c(=O)cc(-c3ccccc3)oc2c1 [7-O-Methoxychrysin, 7-O-methoxychrysin] |  | > 31000 µM |  |  |  | 10 µM (≈ 2.68 µg/mL) | > 2000 µM |  | > 200 µM | no inhibitory activities

Source: article PMC6099615, “Anti-glycation, Carbonyl Trapping and Anti-inflammatory Activities of Chrysin Derivatives” (Molecules : A Journal of Synthetic Chemistry and Natural …, 2018)
